Measured values as given in patent US10350218B2, “Isoquinolidinobenzodiazepine (IQB)-1(chloromethyl)-2,3-dihydro-1H-benzo[e]indole (CBI) dimers” (priority 2016, dated 2019).
Values after ≈ are worked out from the molar mass of the structure shown.

T1: human interleukin 1 receptor accessory protein (IL1RAP) (human, UniProt Q9NPH3 21-570)
T1 construct: The target is carried by human cell lines: EOL1 at high copy number, HL-60 and SK-MEL-5 at low copy number
T1 sequence: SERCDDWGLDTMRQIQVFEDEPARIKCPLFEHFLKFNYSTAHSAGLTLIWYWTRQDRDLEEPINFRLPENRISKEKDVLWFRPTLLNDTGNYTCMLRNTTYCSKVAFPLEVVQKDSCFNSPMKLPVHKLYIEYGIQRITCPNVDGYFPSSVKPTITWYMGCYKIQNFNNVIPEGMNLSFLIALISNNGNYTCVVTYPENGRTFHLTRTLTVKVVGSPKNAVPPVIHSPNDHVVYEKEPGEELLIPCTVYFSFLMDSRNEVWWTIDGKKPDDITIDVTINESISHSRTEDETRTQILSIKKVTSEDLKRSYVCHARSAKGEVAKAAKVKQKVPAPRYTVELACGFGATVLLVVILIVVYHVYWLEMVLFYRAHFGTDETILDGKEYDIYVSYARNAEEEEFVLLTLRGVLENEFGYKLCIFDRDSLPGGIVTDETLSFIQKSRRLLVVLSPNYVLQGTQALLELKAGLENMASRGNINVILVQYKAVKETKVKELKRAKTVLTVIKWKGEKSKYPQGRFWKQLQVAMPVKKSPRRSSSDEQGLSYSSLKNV


How the values were obtained:
HL60 cell line = experiment: Cell killing assay (cytotoxicity) of IQB-CBI dimers, HL60; type: cell-based; settings: Homo sapiens, HL-60, 72 h; HL60 cells; 3-day incubation
Experimental: (§1) Cytotoxicity of D801, D803, D05, D807, D809, D811, D813, D815 and D817 were tested against AML2 and HL60 cell lines. Cell killing assay was performed after 3-day incubation with various IQB-CBI dimers.

AML2 cell line = experiment: Cell killing assay (cytotoxicity) of IQB-CBI dimers, AML2; type: cell-based; settings: 72 h; AML2 cells; 3-day incubation
Experimental: as §1

[1] = molecular target: T1, human interleukin 1 receptor accessory …; experiment: flow cytometry (MFI, anti-human APC secondary) on HL-60, EOL1 and SK-MEL-5 cells expressing IL1RAP
Excerpt: FIGS. 15 and 16 show binding, as a function of mean fluorescent intensity, of humanized (hu3G7) or chimeric (Chi3G7) anti-IL1RAP antibody to various cell lines. HL-60 cells (human promyelocytic leukemia cells), EOL1 cells (human eosinophilic leukemia cells) and SK-MEL-5 cells (human melanoma cell line) express IL1RAP, and EOL1 cells do so with high expression. C0 antibody is a non-binding control IgG1. D212 is a composition having the formula: […]
The cells were resuspended in binding buffer (PBS, 2% FBS)) containing 5% NHS (normal human serum) to 2 ×10^6 cells/mL. To 50 µL of cells, 50 µL of primary antibody/ADC was added and incubated at 4° for 30 min. After incubation, cells were wasked with binding buffer 2 times and then resuspended and incubated with second antibody (anti-human APC, 1:400 in the binding buffer) at 4° for 30 min. Cells were washed with binding buffer and resuspended in 200 uL of binding buffer with propidium iodide. Cells were immediately applied to flow cytometry for analysis. Mean fluorescence intensity (MFI) of the stained sample was measured.

Row | binding result [1] | Molecule | IC50 (HL60 cell line) | IC50 (AML2 cell line)
1 |  | COc1cc2c(cc1OCCCCCC(=O)N1CC(CCl)c3c1cc(O)c1ccccc31)N=C[C@@H]1Cc3ccccc3CN1C2=O (stereo partly drawn) [D813, (6aS)-3-((6-(1-(chloromethyl)-5-hydroxy-1,2-dihydro-3H-benzo[e]indol-3-yl)-6-oxohexyl)oxy)-2-methoxy-7,12-dihydrobenzo[5,6][1,4]diazepino[1,2-b]isoquinolin-14(6aH)-one] | 0.00072 ng/mL (≈ 0.00113 nM) | 0.00028 ng/mL (≈ 0.000439 nM)
2 | binds | humanized, cys-substituted (S156C) anti-IL1RAP antibody 3G7 (hu3G7), tested as antibody and as IQB-CBI antibody-drug conjugates (antibody, human IgG1, kappa, V domains shown, IQB-CBI dimer linker-payload (D816, D818, D820, D822, D824, D826 or D828) attached by maleimide to the substituted cysteine (S156C); DAR 1.7-2.0, also called 3G7-S156C-CYSMAB; hu3G7-IQB-CBI) VH: EVQLVQSGAEVKKPGASVKISCKASGYTFTNYGMHWVRQAPGQGLEWMGWINTYTGEPTYAQKFQGRFTFTLDTSTSTAYLEIRSLRSDDTAVYYCARYYGNFDYWGQGTLLTVSS VL: EIVMTQSPATLSVSPGERATLSCRASQSISNNLHWYQQKPGQAPRLLIYYASQSISGIPARFSGSGSGTEFTLTISSLQSEDFAVYYCQQSHNWPHTFGQGTKLEIKR |  | 
3 | binds | chimeric, cys-substituted (S156C) anti-IL1RAP antibody 3G7 (Chi3G7; human constant domain, mouse variable domain), tested as antibody and as IQB-CBI … (antibody, V domains shown, IQB-CBI dimer linker-payload (D816, D818, D820, D822, D824, D826 or D828) on the substituted cysteine S156C of the heavy chain constant region (constant region sequence not given), also called Chi3G7-(IQB-CBI) ADC; Chi3G7-CLT-(IQB-CBI) ADC) VH: QIQLVQSGPELKKPGETVKISCKASGYTFTNYGMHWVKQSPGEGLKWMGWINTYTGEPTYADDFKGRFGFSLETSASSAYLQINDLKNEDMATYFCARYYGNFDYWGQGTTLTVSS VL: DIVLTQSPATLSVTPGDSVSLSCRASQSISNNLHWYQQKSHESPRLLIKYASQSISGIPSRFSGSGSGTDFTLSINSVETEDFGVYFCQQSHNWPHTFGGGTKLEIKR |  | 
